Experimental findings from ChEMBL document CHEMBL3272192, “Thyroxine analogues. 23. Quantitative structure-activity correlation studies of in vivo and in vitro thyromimetic activities” (1977) are described below.

The subject of experiment [1] is Rattus norvegicus. Nature of the experiment: In vivo antigoiter activity in rat. It is filed as functional.
Experiment [2] is filed under the species Rattus norvegicus. Nature of the experiment: Displacement of radiolabelled L-T3 from thyroid hormone receptor in intact rat hepatic nuclei relative to T3.

Regarding `CCCc1cc(Oc2c(C)cc(CC(N)C(=O)O)cc2C)ccc1O` (stereo not drawn), in the experiment with Rattus norvegicus [1], the Activity worked out at 2.36% and the “log(%)” value came to 0.373.

Take `NC(Cc1cc(I)c(Oc2cccc(F)c2)c(I)c1)C(=O)O` (stereo not drawn): in the experiment on Rattus norvegicus [1], the Activity is 1.39% and the “log(%)” value is 0.143.

In the experiment listed under Rattus norvegicus [2], `Cc1c(O)ccc(Oc2c(I)cc(CC(N)C(=O)O)cc2I)c1C` (stereo not drawn) yielded an RBA of 1.1% and a log(%) of 0.041. Also, in the experiment with Rattus norvegicus [1], the Activity is 9.04% and the “log(%)” value turned out to be 0.956.

In the case of `NC(Cc1cc(I)c(Oc2cc(Cl)c(O)c(Cl)c2)c(I)c1)C(=O)O` (stereo not drawn), in the experiment listed under Rattus norvegicus [2], the RBA was found to be 4.5% and the log(%) is 0.653. In the experiment with Rattus norvegicus [1], the Activity is recorded as 3.8% and the “log(%)” value is 0.58.

For `COc1ccc(Oc2c(I)cc(CC(N)C(=O)O)cc2I)cc1C(C)C` (stereo not drawn), in the experiment with Rattus norvegicus [1], the Activity is on record as 19% and the “log(%)” value amounted to 1.279.

For the compound `Cc1cc(CC(N)C(=O)O)cc(I)c1Oc1ccc(O)cc1` (stereo not drawn), in the experiment with Rattus norvegicus [1], the Activity is 0.093% and the “log(%)” value is -1.032.

In the experiment filed under Rattus norvegicus [2], `NC(Cc1cc(I)c(Sc2ccc(O)c(I)c2)c(I)c1)C(=O)O` (stereo not drawn) yielded an RBA of 100% and a log(%) of 2. For the same compound, in the experiment with Rattus norvegicus [1], the Activity is 13.82% and the “log(%)” value is listed as 1.14.

Turning to `CCC(C)c1cc(Oc2c(C)cc(CC(N)C(=O)O)cc2C)ccc1O` (stereo not drawn), in the experiment on Rattus norvegicus [1], the Activity is given as 2.91% and the “log(%)” value is reported as 0.464.

Take `NC(Cc1cc(I)c(Oc2cc(Br)c(O)c(Br)c2)c(I)c1)C(=O)O` (stereo not drawn): in the experiment with Rattus norvegicus [1], the Activity came to 1.58% and the “log(%)” value is given as 0.199.

In the experiment filed under Rattus norvegicus [2], `NC(Cc1ccc(Oc2cc(I)c(O)c(I)c2)c(I)c1)C(=O)O` (stereo not drawn) [REVERSETRIIODOTHYRONINE] came in with an RBA of 0.1% and a log(%) of -1. Moreover, in the experiment with Rattus norvegicus [1], the Activity was 0.125% and the “log(%)” value is listed as -0.903.

`NC(Cc1cc(Cl)c(Oc2ccc(O)c(Cl)c2)c(Cl)c1)C(=O)O` (stereo not drawn): in the experiment on Rattus norvegicus [1], the Activity is 0.091% and the “log(%)” value is reported as -1.041.

Take `NC(Cc1cc(I)c(Oc2ccc(O)c([N+](=O)[O-])c2)c(I)c1)C(=O)O` (stereo not drawn): in the experiment with Rattus norvegicus [1], the Activity is listed as 0.18% and the “log(%)” value is given as -0.745.

In the experiment listed under Rattus norvegicus [2], `Cc1cc(Oc2c(I)cc(CC(N)C(=O)O)cc2I)c(C)cc1O` (stereo not drawn) returned an RBA of 0.1% and a log(%) of -1. In addition, in the experiment with Rattus norvegicus [1], the Activity turned out to be 0.18% and the “log(%)” value was -0.745.

On to `Cc1cc(CC(N)C(=O)O)cc(C)c1Oc1ccc(O)c(I)c1` (stereo not drawn), for which, in the experiment on Rattus norvegicus [1], the Activity is listed as 0.9% and the “log(%)” value is -0.046.

On to `NC(Cc1cc(Br)c(Oc2ccc(O)c(I)c2)c(Br)c1)C(=O)O` (stereo not drawn), for which, in the experiment with Rattus norvegicus [1], the Activity stood at 16.87% and the “log(%)” value stood at 1.227.

In the experiment listed under Rattus norvegicus [2], `NC(Cc1cc(I)c(Cc2ccc(O)c(I)c2)c(I)c1)C(=O)O` (stereo not drawn) returned an RBA of 250% and a log(%) of 2.4. For the same compound, in the experiment on Rattus norvegicus [1], the Activity is reported as 54.25% and the “log(%)” value stood at 1.734.

`NC(Cc1cc(I)c(Oc2cccc(Cl)c2)c(I)c1)C(=O)O` (stereo not drawn): in the experiment with Rattus norvegicus [1], the Activity was found to be 7.78% and the “log(%)” value is reported as 0.891.

In the experiment filed under Rattus norvegicus [2], `CC(C)c1cc(Oc2c(Br)cc(CC(N)C(=O)O)cc2Br)ccc1O` (stereo not drawn) had an RBA of 36% and a log(%) of 1.56. Moreover, in the experiment with Rattus norvegicus [1], the Activity worked out at 30% and the “log(%)” value is recorded as 1.477.

As for `NC(Cc1cc(I)c(Oc2ccc(O)c(F)c2)c(I)c1)C(=O)O` (stereo not drawn), in the experiment on Rattus norvegicus [1], the Activity was 0.65% and the “log(%)” value is given as -0.785.

Turning to `NC(Cc1cc(Cl)c(Oc2cc(Cl)c(O)c(I)c2)c(I)c1)C(=O)O` (stereo not drawn), in the experiment on Rattus norvegicus [1], the Activity stood at 2.27% and the “log(%)” value worked out at 0.356.

Turning to `COc1ccc(Oc2c(I)cc(CC(N)C(=O)O)cc2I)cc1C(C)(C)C` (stereo not drawn), in the experiment with Rattus norvegicus [1], the Activity is given as 2.35% and the “log(%)” value came out at 0.371.

With `CC(C)c1cc(Oc2c(I)cc(CC(N)C(=O)O)cc2I)cc(C(C)C)c1O` (stereo not drawn), in the experiment listed under Rattus norvegicus [2], the RBA came out at 1.4% and the log(%) turned out to be 0.146.

With `NC(Cc1cc(Br)c(Oc2cc(I)c(O)c(I)c2)c(Br)c1)C(=O)O` (stereo not drawn), in the experiment on Rattus norvegicus [1], the Activity amounted to 1.97% and the “log(%)” value is 0.294.

`NC(Cc1cc(Br)c(Oc2cc(Br)c(O)c(Br)c2)c(Br)c1)C(=O)O` (stereo not drawn): in the experiment with Rattus norvegicus [1], the Activity was found to be 0.065% and the “log(%)” value is recorded as -1.187.

`NC(Cc1cc(I)c(Oc2ccc(O)c3ccccc23)c(I)c1)C(=O)O` (stereo not drawn): in the experiment listed under Rattus norvegicus [2], the RBA is 8% and the log(%) was found to be 0.903.

Turning to `NC(Cc1cc(I)c(Cc2cc(I)c(O)c(I)c2)c(I)c1)C(=O)O` (stereo not drawn), in the experiment filed under Rattus norvegicus [2], the RBA amounted to 2.6% and the log(%) was determined as 0.415.

As for `Cc1cc(CC(N)C(=O)O)cc(I)c1Oc1ccc(O)c(I)c1` (stereo not drawn), in the experiment on Rattus norvegicus [1], the Activity is 6.24% and the “log(%)” value is given as 0.795.

On to `Cc1cc(CC(N)C(=O)O)ccc1Oc1ccc(O)c(I)c1` (stereo not drawn), for which, in the experiment on Rattus norvegicus [1], the Activity worked out at 0.12% and the “log(%)” value was -0.921.

Consider `Cc1cc(C)cc(Oc2c(I)cc(CC(N)C(=O)O)cc2I)c1` (stereo not drawn), for which, in the experiment on Rattus norvegicus [1], the Activity was 0.054% and the “log(%)” value was -0.839.

As for `NC(Cc1cc(Br)c(Oc2cc(Br)c(O)c(I)c2)c(I)c1)C(=O)O` (stereo not drawn), in the experiment on Rattus norvegicus [1], the Activity was 2.83% and the “log(%)” value was 0.452.

On to `Cc1cc(Oc2c(I)cc(CC(N)C(=O)O)cc2I)ccc1N` (stereo not drawn), for which, in the experiment on Rattus norvegicus [1], the Activity was found to be 0.036% and the “log(%)” value is on record as -1.444.

`NC(Cc1cc(I)c(Oc2cccc(Br)c2)c(I)c1)C(=O)O` (stereo not drawn): in the experiment on Rattus norvegicus [1], the Activity came to 18% and the “log(%)” value was found to be 1.225.

Consider `CCC(C)c1cc(Oc2c(I)cc(CC(N)C(=O)O)cc2I)ccc1O` (stereo not drawn), for which, in the experiment with Rattus norvegicus [1], the Activity turned out to be 79.9% and the “log(%)” value is reported as 1.902.

As to `CC(C)c1cc(CC(N)C(=O)O)cc(C(C)C)c1Oc1ccc(O)c(I)c1` (stereo not drawn), the RBA in the experiment filed under Rattus norvegicus [2] turned out to be 0.2%.

Consider `CCCc1cc(Oc2c(I)cc(CC(N)C(=O)O)cc2I)ccc1O` (stereo not drawn), for which, in the experiment on Rattus norvegicus [1], the Activity turned out to be 39.5% and the “log(%)” value is 1.597.

Regarding `NC(Cc1cc(Br)c(Oc2ccc(O)c(Br)c2)c(Br)c1)C(=O)O` (stereo not drawn), in the experiment with Rattus norvegicus [1], the Activity turned out to be 4.63% and the “log(%)” value is recorded as 0.666.

For `NC(Cc1cc(I)c(Oc2ccc(O)c(Br)c2)c(I)c1)C(=O)O` (stereo not drawn), in the experiment with Rattus norvegicus [1], the Activity is given as 23.78% and the “log(%)” value is 1.376.

With `CC(C)c1cc(Oc2c(I)cc(CC(N)C(=O)O)cc2I)cc(I)c1O` (stereo not drawn), in the experiment on Rattus norvegicus [1], the Activity is recorded as 55.36% and the “log(%)” value was found to be 1.743.

In the experiment listed under Rattus norvegicus [2], `NC(Cc1cc(I)c(Sc2ccc(O)cc2)c(I)c1)C(=O)O` (stereo not drawn) yielded an RBA of 1.3% and a log(%) of 0.114.

For the compound `Cc1cc(Oc2c(I)cc(CC(N)C(=O)O)cc2I)cc(C)c1N` (stereo not drawn), in the experiment on Rattus norvegicus [1], the Activity was 0.31% and the “log(%)” value is reported as -0.886.

For the compound `COc1ccc(Oc2c(I)cc(CC(N)C(=O)O)cc2I)cc1I` (stereo not drawn), in the experiment on Rattus norvegicus [1], the Activity turned out to be 11.25% and the “log(%)” value came to 1.051.

Turning to `NC(Cc1cc(I)c(Oc2ccc(O)c(C3CCCCC3)c2)c(I)c1)C(=O)O` (stereo not drawn), in the experiment listed under Rattus norvegicus [2], the RBA was 1.4% and the log(%) stood at 0.146.

Consider `NC(Cc1cc(I)c(Oc2cc(F)c(O)c(F)c2)c(I)c1)C(=O)O` (stereo not drawn), for which, in the experiment on Rattus norvegicus [1], the Activity was determined as 0.43% and the “log(%)” value is reported as -0.366.

Consider `NC(Cc1cc(I)c(Oc2cc(F)c(O)c(I)c2)c(I)c1)C(=O)O` (stereo not drawn), for which, in the experiment on Rattus norvegicus [1], the Activity turned out to be 6.03% and the “log(%)” value is given as 0.78.

Take `NC(Cc1cc(I)c(Oc2ccccc2)c(I)c1)C(=O)O` (stereo not drawn): in the experiment with Rattus norvegicus [1], the Activity came out at 1.24% and the “log(%)” value is on record as 0.093.
